Laboratory results: PubChem BioAssay AID1745844 (Carcinogenic Potency Database (CPDB), 2022)
Calls of active or inactive are those of the source. How the calls were made is not given here. Numbered stars: 1 amine (or outer) side, 2 acyl side, 3 side chain; on linkers, the order of the positions; unused ones are H or OH. Bridge positions count the residues as written; N and C are the ends. Square brackets hold non-standard residues; d marks the D form. Peptide text beside a SMILES is read from it. I, II: the chains in the order shown. Actinocin(9to1) = Cc1c2oc3c(C)ccc(C(=O)[*:1])c3nc-2c(C(=O)[*:2])c(N)c1=O; NMeV = CN[C@H](C(=O)O)C(C)C; Sar = CNCC(=O)O

System: rodent lifetime carcinogenesis bioassay, tumor incidence TD50
Test: carcinogenic potency in animals, long-term in vivo studies, CPDB compilation (AID 1745844)
[1] = mouse, strain B6C3F1, females, in feed, site: any site (literature study), lesion: several types, types named in the paper, dosed 103 weeks, study length 104 weeks
[2] = mouse, strain B6C3F1, females, in feed, site: liver, lesion: hepatocellular adenoma + hepatocellular carcinoma + neoplastic nodule, dosed 103 weeks, study length 104 weeks
[3] = mouse, strain B6C3F1, females, in feed, site: lung, lesion: alveolar/bronchiolar adenoma + alveolar/bronchiolar carcinoma, dosed 103 weeks, study length 104 weeks
[4] = mouse, strain B6C3F1, males, in feed, site: any site (literature study), lesion: several types, types named in the paper, dosed 103 weeks, study length 104 weeks
[5] = mouse, strain B6C3F1, males, in feed, site: liver, lesion: hepatocellular adenoma + hepatocellular carcinoma + neoplastic nodule, dosed 103 weeks, study length 104 weeks
[6] = mouse, strain B6C3F1, males, in feed, site: lung, lesion: alveolar/bronchiolar adenoma + alveolar/bronchiolar carcinoma, dosed 103 weeks, study length 104 weeks
[7] = rat, strain Fischer 344, females, in feed, site: liver, lesion: hepatocellular adenoma + hepatocellular carcinoma + neoplastic nodule, dosed 103 weeks, study length 104 weeks
[8] = rat, strain Fischer 344, males, in feed, site: any site (literature study), lesion: several types, types named in the paper, dosed 103 weeks, study length 104 weeks
[9] = rat, strain Fischer 344, males, in feed, site: liver, lesion: hepatocellular adenoma + hepatocellular carcinoma + neoplastic nodule, dosed 103 weeks, study length 104 weeks

In the case of `FC(F)OC(F)(F)C(F)Cl` (centres undefined), the carcinogen call (mouse, strain Swiss/ICR, females, inhaled, site: liver, lesion: one or several types, types not named, dosed 52 weeks, study length 52 weeks) is reported as “negative (inactive)”, the carcinogen call (mouse, strain Swiss/ICR, females, inhaled, site: liver, lesion: several types, types named in the paper, dosed 78 weeks, study length 82 weeks) is reported as “negative (inactive)” and the TD50 (mouse, strain Swiss/ICR, females, inhaled, site: lung, lesion: adenoma, dosed 52 weeks, study length 52 weeks) is reported as 8930 mg/kg/day (inactive). For the same molecule, the TD50 (mouse, strain Swiss/ICR, females, inhaled, site: lung, lesion: adenoma, dosed 78 weeks, study length 82 weeks) was 18900 mg/kg/day (inactive), the TD50 (mouse, strain Swiss/ICR, males, inhaled, site: liver, lesion: several types, types named in the paper, dosed 52 weeks, study length 52 weeks) was 8120 mg/kg/day (inactive) and the TD50 (mouse, strain Swiss/ICR, males, inhaled, site: liver, lesion: several types, types named in the paper, dosed 78 weeks, study length 82 weeks) was 11700 mg/kg/day (inactive). The carcinogen call (mouse, strain Swiss/ICR, males, inhaled, site: lung, lesion: adenoma, dosed 52 weeks, study length 52 weeks) was “negative (inactive)” and the TD50 (mouse, strain Swiss/ICR, males, inhaled, site: lung, lesion: adenoma, dosed 78 weeks, study length 82 weeks) was 60900 mg/kg/day (inactive).

`CCCCCC(N)=O` was tested, and the carcinogen call (mouse, strain C57BL/6, females, in feed, site: liver, lesion: hepatocellular carcinoma, dosed 52 weeks, study length 69 weeks) was “negative (inactive)”, the TD50 (mouse, strain C57BL/6, females, in feed, site: lung, lesion: alveolar/bronchiolar adenoma, dosed 52 weeks, study length 69 weeks) was 37200 mg/kg/day (inactive) and the TD50 (mouse, strain C57BL/6, females, in feed, site: stomach, lesion: squamous-cell papilloma, dosed 52 weeks, study length 69 weeks) was 8900 mg/kg/day. The TD50 (mouse, strain C57BL/6, males, in feed, site: all sites, lesion: malignant lymphoma, histiocytic type, dosed 52 weeks, study length 69 weeks) was 2140 mg/kg/day, the TD50 (mouse, strain C57BL/6, males, in feed, site: all sites, lesion: several types, types named in the paper, dosed 52 weeks, study length 69 weeks) was 1950 mg/kg/day and the TD50 (mouse, strain C57BL/6, males, in feed, site: liver, lesion: hemangiosarcoma, dosed 52 weeks, study length 69 weeks) was 25300 mg/kg/day (inactive). For the same molecule, the TD50 (mouse, strain C57BL/6, males, in feed, site: liver, lesion: malignant lymphoma, histiocytic type, dosed 52 weeks, study length 69 weeks) was 25300 mg/kg/day, the TD50 (mouse, strain C57BL/6, males, in feed, site: lung, lesion: alveolar/bronchiolar adenoma, dosed 52 weeks, study length 69 weeks) was 3490 mg/kg/day (inactive) and the TD50 (mouse, strain C57BL/6, males, in feed, site: multiple organs, lesion: malignant lymphoma, histiocytic type, dosed 52 weeks, study length 69 weeks) was 2660 mg/kg/day. For the same molecule, the carcinogen call (rat, strain Fischer 344, females, in feed, site: liver, lesion: one or several types, types not named, dosed 52 weeks, study length 69 weeks) was “negative (inactive)” and the carcinogen call (rat, strain Fischer 344, males, in feed, site: liver, lesion: one or several types, types not named, dosed 52 weeks, study length 69 weeks) was “negative (inactive)”.

`Cc1c2oc3c(C)ccc(C(=O)N[C@@H]4C(=O)N[C@H](C(C)C)C(=O)N5CCC[C@H]5C(=O)N(C)CC(=O)N(C)[C@@H](C(C)C)C(=O)O[C@@H]4C)c3nc-2c(C(=O)N[C@@H]2C(=O)N[C@H](C(C)C)C(=O)N3CCC[C@H]3C(=O)N(C)CC(=O)N(C)[C@@H](C(C)C)C(=O)O[C@@H]2C)c(N)c1=O` (I: T[dV]P[Sar][NMeV] / II: T[dV]P[Sar][NMeV]; ester I:1-I:C, II:1-II:C; linker I:N-II:N via Actinocin(9to1)) was tested, and the TD50 (rat, strain Charles River CD (Sprague-Dawley), females, i.p., site: any site (literature study), lesion: malignant tumor, dosed 26 weeks, study length 78 weeks) was 0.00121 mg/kg/day, the TD50 (rat, strain Charles River CD (Sprague-Dawley), females, i.p., site: any site (literature study), lesion: several types, types named in the paper, dosed 26 weeks, study length 78 weeks) was 0.00145 mg/kg/day and the TD50 (rat, strain Charles River CD (Sprague-Dawley), females, i.p., site: lung, lesion: adenoma, dosed 26 weeks, study length 78 weeks) was 0.0501 mg/kg/day. The TD50 (rat, strain Charles River CD (Sprague-Dawley), females, i.p., site: peritoneum, lesion: sarcoma, dosed 26 weeks, study length 78 weeks) was 0.00199 mg/kg/day, the TD50 (rat, strain Charles River CD (Sprague-Dawley), males, i.p., site: all sites, lesion: lymphosarcoma, dosed 26 weeks, study length 78 weeks) was 0.0201 mg/kg/day and the TD50 (rat, strain Charles River CD (Sprague-Dawley), males, i.p., site: all sites, lesion: plasmacytoma, dosed 26 weeks, study length 78 weeks) was 0.0201 mg/kg/day. It also gave a TD50 (rat, strain Charles River CD (Sprague-Dawley), males, i.p., site: any site (literature study), lesion: malignant tumor, dosed 26 weeks, study length 78 weeks) of 0.000708 mg/kg/day, a TD50 (rat, strain Charles River CD (Sprague-Dawley), males, i.p., site: any site (literature study), lesion: several types, types named in the paper, dosed 26 weeks, study length 78 weeks) of 0.000501 mg/kg/day and a TD50 (rat, strain Charles River CD (Sprague-Dawley), males, i.p., site: liver, lesion: hemangioma, dosed 26 weeks, study length 78 weeks) of 0.0407 mg/kg/day. For the same molecule, the TD50 (rat, strain Charles River CD (Sprague-Dawley), males, i.p., site: peritoneum, lesion: sarcoma, dosed 26 weeks, study length 78 weeks) was 0.000769 mg/kg/day.

Molecule `Cc1ccc(N=Nc2c(O)ccc3ccccc23)c([N+](=O)[O-])c1` has a TD50 [1] of 13800 mg/kg/day, a TD50 [2] of 204000 mg/kg/day and a TD50 [3] of 252000 mg/kg/day. The TD50 (mouse, strain B6C3F1, females, in feed, site: lymph node, lesion: axillary histiocytic sarcoma + deep cervical, histiocytic sarcoma + iliac histiocytic sarcoma + inguinal histiocytic sarcoma + r, dosed 103 weeks, study length 104 weeks) was 104000 mg/kg/day (inactive), the TD50 (mouse, strain B6C3F1, males, in feed, site: all sites, lesion: malignant lymphoma, histiocytic type + malignant lymphoma, mixed type, dosed 103 weeks, study length 104 weeks) was 22700 mg/kg/day and the TD50 [4] was 9420 mg/kg/day. The TD50 (mouse, strain B6C3F1, males, in feed, site: kidney cortex + thyroid gland, lesion: adenoma + follicular-cell adenoma, dosed 103 weeks, study length 104 weeks) was 19500 mg/kg/day, the TD50 (mouse, strain B6C3F1, males, in feed, site: kidney cortex, lesion: adenoma, dosed 103 weeks, study length 104 weeks) was 35500 mg/kg/day and the TD50 [5] was 17900 mg/kg/day. The TD50 [6] was 36900 mg/kg/day, the TD50 (mouse, strain B6C3F1, males, in feed, site: thyroid gland, lesion: follicular-cell adenoma, dosed 103 weeks, study length 104 weeks) was 38300 mg/kg/day and the TD50 [7] was 5240 mg/kg/day. For the same molecule, the TD50 (rat, strain Fischer 344, females, in feed, site: liver, lesion: hepatocellular adenoma, dosed 103 weeks, study length 104 weeks) was 5240 mg/kg/day, the TD50 (rat, strain Fischer 344, males, in feed, site: Zymbal's gland, lesion: carcinoma, dosed 103 weeks, study length 104 weeks) was 9010 mg/kg/day and the TD50 (rat, strain Fischer 344, males, in feed, site: adrenal medulla, lesion: pheochromocytoma, benign, dosed 103 weeks, study length 104 weeks) was 674 mg/kg/day. It also gave a TD50 (rat, strain Fischer 344, males, in feed, site: adrenal medulla, lesion: pheochromocytoma, malignant + pheochromocytoma, benign, dosed 103 weeks, study length 104 weeks) of 661 mg/kg/day, a TD50 [8] of 906 mg/kg/day and a TD50 [9] of 5170 mg/kg/day. For the same molecule, the TD50 (rat, strain Fischer 344, males, in feed, site: skin, lesion: carcinoma + squamous-cell papilloma, dosed 103 weeks, study length 104 weeks) was 3660 mg/kg/day and the TD50 (rat, strain Fischer 344, males, in feed, site: skin, lesion: squamous-cell papilloma, dosed 103 weeks, study length 104 weeks) was 2540 mg/kg/day.

`O=P(OCC(Br)CBr)(OCC(Br)CBr)OCC(Br)CBr` (centres undefined) showed a TD50 [1] of 148 mg/kg/day, a TD50 (mouse, strain B6C3F1, females, in feed, site: liver + lung + stomach, lesion: hepatocellular adenoma + hepatocellular carcinoma + alveolar/bronchiolar adenoma + alveolar/bronchiolar carcinoma + squamous-cel, dosed 103 weeks, study length 104 weeks) of 80.1 mg/kg/day and a TD50 [2] of 95 mg/kg/day. It also gave a TD50 (mouse, strain B6C3F1, females, in feed, site: liver, lesion: hepatocellular adenoma + hepatocellular carcinoma, dosed 103 weeks, study length 104 weeks) of 95 mg/kg/day, a TD50 (mouse, strain B6C3F1, females, in feed, site: liver, lesion: hepatocellular carcinoma, dosed 103 weeks, study length 104 weeks) of 221 mg/kg/day and a TD50 [3] of 225 mg/kg/day. It also gave a TD50 (mouse, strain B6C3F1, females, in feed, site: stomach, lesion: squamous-cell carcinoma + squamous-cell papilloma, dosed 103 weeks, study length 104 weeks) of 127 mg/kg/day, a TD50 (mouse, strain B6C3F1, females, in feed, site: stomach, lesion: squamous-cell carcinoma, dosed 103 weeks, study length 104 weeks) of 611 mg/kg/day and a TD50 (mouse, strain B6C3F1, females, in feed, site: uterus, lesion: endometrial stromal polyp, dosed 103 weeks, study length 104 weeks) of 264 mg/kg/day. The TD50 [4] was 2220 mg/kg/day, the TD50 (mouse, strain B6C3F1, males, in feed, site: kidney + lung + stomach, lesion: tubular-cell adenoma + tubular-cell adenocarcinoma + alveolar/bronchiolar adenoma + alveolar/bronchiolar carcinoma + squamous-ce, dosed 103 weeks, study length 104 weeks) was 103 mg/kg/day and the TD50 (mouse, strain B6C3F1, males, in feed, site: kidney, lesion: tubular-cell adenocarcinoma, dosed 103 weeks, study length 104 weeks) was 822 mg/kg/day. It also gave a TD50 (mouse, strain B6C3F1, males, in feed, site: kidney, lesion: tubular-cell adenoma + tubular-cell adenocarcinoma, dosed 103 weeks, study length 104 weeks) of 256 mg/kg/day, a TD50 [5] of 172 mg/kg/day and a TD50 [6] of 211 mg/kg/day. For the same molecule, the TD50 (mouse, strain B6C3F1, males, in feed, site: lung, lesion: alveolar/bronchiolar carcinoma, dosed 103 weeks, study length 104 weeks) was 449 mg/kg/day, the TD50 (mouse, strain B6C3F1, males, in feed, site: stomach, lesion: squamous-cell carcinoma + squamous-cell papilloma, dosed 103 weeks, study length 104 weeks) was 197 mg/kg/day and the TD50 (rat, strain Fischer 344, females, in feed, site: any site (literature study), lesion: several types, types named in the paper, dosed 103 weeks, study length 104 weeks) was 23 mg/kg/day. It also gave a TD50 (rat, strain Fischer 344, females, in feed, site: kidney, lesion: tubular-cell adenoma, dosed 103 weeks, study length 104 weeks) of 13.8 mg/kg/day, a TD50 [7] of 2820 mg/kg/day and a TD50 (rat, strain Fischer 344, females, in feed, site: ovary, lesion: Sertoli-cell tumor, dosed 103 weeks, study length 104 weeks) of 66.4 mg/kg/day. It also gave a TD50 (rat, strain Fischer 344, males, by gavage, site: colon, lesion: polypoid adenoma, dosed 52 weeks, study length 52 weeks) of 13.4 mg/kg/day, a TD50 (rat, strain Fischer 344, males, by gavage, site: kidney, lesion: adenocarcinoma, dosed 52 weeks, study length 52 weeks) of 54.8 mg/kg/day and a TD50 [8] of 8.31 mg/kg/day. For the same molecule, the TD50 (rat, strain Fischer 344, males, in feed, site: kidney, lesion: tubular-cell adenocarcinoma, dosed 103 weeks, study length 104 weeks) was 63.3 mg/kg/day, the TD50 (rat, strain Fischer 344, males, in feed, site: kidney, lesion: tubular-cell adenoma + tubular-cell adenocarcinoma, dosed 103 weeks, study length 104 weeks) was 1.57 mg/kg/day and the TD50 (rat, strain Fischer 344, males, in feed, site: kidney, lesion: tubular-cell adenoma, dosed 103 weeks, study length 104 weeks) was 1.57 mg/kg/day. It also gave a TD50 [9] of 34.3 mg/kg/day, a TD50 (rat, strain Fischer 344, males, in feed, site: liver, lesion: hepatocellular carcinoma + neoplastic nodule, dosed 103 weeks, study length 104 weeks) of 34.3 mg/kg/day and a TD50 (rat, strain Fischer 344, males, in feed, site: preputial gland, lesion: adenocarcinoma, NOS + adenoma, NOS + carcinoma, NOS, dosed 103 weeks, study length 104 weeks) of 20.3 mg/kg/day.
